Counter-ions that a name gives are not always drawn.
Row | SMILES | melting point
1 | CCOc1ccc(C2=NN(c3ccc(C(=O)N4CCN(C5CCN(C)CC5)CC4)cc3)C(=O)[C@@H]3CC=CC[C@H]23)cc1OCC.Cl.Cl [Compound 28, (4aS,8aR)-4-(3,4-Diethoxy-phenyl)-2-(4-{1-[4-(1-methyl-piperidin-4-yl)-piperazin-1-yl]-methanoyl}-phenyl)-4a,5,8,8a-tetrahydro-2H-phthalazin-1-one dihydrochloride] | 275 °C (dec.)
2 | CCOc1ccc(C2=NN(c3ccc(C(=O)N4CCN(c5cnn(-c6ccccc6)c(=O)c5Cl)CC4)cc3)C(=O)[C@@H]3CC=CC[C@H]23)cc1OCC [Compound 12, (4aS,8aR)-2-{4-[4-(5-Chloro-6-oxo-1-phenyl-1,6-dihydro-pyridazin-4-yl)-piperazine-1-carbonyl]-phenyl}-4-(3,4-diethoxy-phenyl)-4a,5,8,8a-tetrahydro-2H-phthalazin-1-one] | 148 to 151 °C
3 | COc1ccc(C2=NN(c3ccc(C(=O)N4CCN(CC(=O)N5CCOCC5)CC4)cc3)C(=O)[C@@H]3CC=CC[C@H]23)cc1OC.Cl | 168 to 169 °C
4 | COc1ccc(C2=NN(c3ccc(C(=O)N4CCN(C/C=C/c5ccccc5)CC4)cc3)C(=O)[C@@H]3CC=CC[C@H]23)c2c1OC(C)(C)C2.Cl [Compound 8, (4aS,8aR)-4-(7-methoxy-2,2-dimethyl-2,3-dihydro-benzofuran-4-yl)-2-(4-{1-[4-((E)-3-phenyl-allyl)-piperazin-1-yl]-methanoyl}-phenyl)-4a,5,8,8a-tetrahydro-2H-phthalazin-1-one hydrochloride] | 230 to 231 °C
5 | CCOc1ccc(C2=NN(c3ccc(C(=O)N4CCN(C=O)CC4)cc3)C(=O)[C@@H]3CC=CC[C@H]23)cc1OCC [Compound 5, 4-(1-{4-[(4aS,8aR)-4-(3,4-Diethoxyphenyl)-1-oxo-4a,5,8,8a-tetrahydro-1H-phthalazin-2-yl]-phenyl}-methanoyl)-piperazine-1-carbaldehyde] | 143 to 144 °C
6 | COc1ccc(C2=NN(c3ccc(C(=O)N4CCN(C(=O)c5ccco5)CC4)cc3)C(=O)C3CC=CCC23)c2c1OC(C)(C)C2 [Compound 9, (4aS,8aR)-2-(4-{1-[4-(1-furan-2-yl-methanoyl)-piperazin-1-yl]-methanoyl}-phenyl)-4-(7-methoxy-2,2-dimethyl-2,3-dihydrobenzofuran-4-yl)-4a,5,8,8a-tetrahydro-2-phthalazin-1-one] | 138 to 140 °C
7 | COc1ccc(C2=NN(c3ccc(C(=O)N4CCN(CCCN(C)C)CC4)cc3)C(=O)[C@@H]3CC=CC[C@H]23)cc1OC.Cl.Cl [Compound 13, (4aS,8aR)-4-(3,4-Dimethoxyphenyl)-2-(4-{1-[4-(3-dimethylamino-propyl)-piperazin-1-yl]-methanoyl}-phenyl)-4a,5,8,8a-tetrahydro-2H-phthalazin-1-one dihydrochloride] | 223 to 226 °C
8 | COc1ccc(C2=NN(c3ccc(C(=O)N4CCN(c5ccccc5)CC4)cc3)C(=O)[C@@H]3CC=CC[C@H]23)c2c1OC(C)(C)C2 [Compound 10, (4aS,8aR)-4-(7-Methoxy-2,2-dimethyl-2,3-dihydro-benzofuran-4-yl)-2-{4-[1-(4-phenyl-piperazin-1-yl)-methanoyl]-phenyl}-4a,5,8,8a-tetrahydro-2H-phthalazin-1-one] | 185 to 186 °C
9 | COc1ccc(C2=NN(c3ccc(C(=O)N4CCN(CCCN(C)C)CC4)cc3)C(=O)[C@@H]3CC=CC[C@H]23)c2c1OC(C)(C)C2.Cl.Cl [Compound 11, (4aS,8aR)-2-(4-{1-[4-(3-Dimethylamino-propyl)-piperazin-1-yl]-methanoyl}-phenyl)-4-(7-methoxy-2,2-dimethyl-2,3-dihydro-benzofuran-4-yl)-4a,5,8,8a-tetrahydro-2H-phthalazin-1-one dihydrochloride] | 262 °C (dec.)
10 | CCOc1ccc(C2=NN(c3ccc(C(=O)N4CCN(c5ccncc5)CC4)cc3)C(=O)[C@@H]3CC=CC[C@H]23)cc1OCC.Cl [Compound 27, (4aS,8aR)-4-(3,4-Diethoxy-phenyl)-2-{4-[1-(4-pyridin-4-yl-piperazin-1-yl)-methanoyl]-phenyl}-4a,5,8,8a-tetrahydro-2H-phthalazin-1-one hydrochloride] | 164 to 167 °C
11 | COc1ccc(C2=NN(c3ccc(C(=O)N4CCN(CCN(C)C)CC4)cc3)C(=O)C3CC=CCC23)c2c1OC(C)(C)C2 (as salt: hydrochloride) [Compound 14, (4aS,8aR)-2-{4-[4-(2-Dimethylamino-ethyl)-piperazine-1-carbonyl]-phenyl}-4-(7-methoxy-2,2-dimethy-2,3-dihydro-benzofuran-4-yl)-4a,5,8,8a-tetrahydro-2H-phthalazin-1-one dihydrochloride] | 245 °C (dec.)
12 | COc1ccc(C2=NN(c3ccc(C(=O)N4CCN(CC(=O)N5CCCC5)CC4)cc3)C(=O)[C@@H]3CC=CC[C@H]23)cc1OC.Cl | 160 to 161 °C
13 | CCOc1ccc(C2=NN(c3ccc(C(=O)N4CCN(c5ccccn5)CC4)cc3)C(=O)[C@@H]3CC=CC[C@H]23)cc1OCC [Compound 2, (4aS,8aR)-4-(3,4-Diethoxyphenyl)-2-{4-[1-(4-pyridin-2-yl-piperazin-1-yl)-methanoyl]-phenyl}-4a,5,8,8a-tetrahydro-2H-phthalazin-1-one] | 183 to 184 °C
14 | CCOc1ccc(C2=NN(c3ccc(C(=O)N4CCN(CCCN(C)C)CC4)cc3)C(=O)[C@@H]3CC=CC[C@H]23)cc1OCC.Cl.Cl | 248 °C (dec.)
15 | CCOc1ccc(C2=NN(c3ccc(C(=O)N4CCN(c5ccc([N+](=O)[O-])cn5)CC4)cc3)C(=O)C3CC=CCC23)cc1OCC (as salt: hydrochloride) [Compound 18, (4aS,8aR)-4-(3,4-Diethoxyohenyl)-2-(4-{1-[4-(5-nitro-pyridin-2-yl)-piperazin-1-yl]-methanoyl}-phenyl)-4a,5,8,8a-tetrahydro-2H-phthalazin-1-one hydrochloride] | 117 to 118 °C
16 | COc1ccc(C2=NN(c3ccc(C(=O)N4CCN(c5c(Cl)cncc5Cl)CC4)cc3)C(=O)[C@@H]3CC=CC[C@H]23)cc1OC [Compound 15, (4aS,8aR)-2-(4-{1-[4-(3,5-Dichloropyridin-4-yl)-piperazin-1-yl]-methanoyl}-phenyl)-4-(3,4-dimethoxyphenyl)-4a,5,8,8a-tetrahydro-2H-phthalazin-1-one] | 137 to 139 °C
17 | COc1ccc(C2=NN(Cc3ccc(C(=O)N4CCN(CCCN(C)C)CC4)cc3)C(=O)[C@H]3CC=CC[C@@H]23)c2c1OC(C)(C)C2.Cl.Cl (relative stereo) | 247 to 249 °C
18 | CCOc1ccc(C2=NN(c3ccc(C(=O)N4CCN(Cc5ccncc5)CC4)cc3)C(=O)[C@@H]3CC=CC[C@H]23)cc1OCC.Cl.Cl [Compound 25, (4aS,8aR)-4-(3,4-Diethoxy-phenyl)-2-{4-[1-(4-pyridin-4-ylmethyl-piperazin-1-yl)-methanoyl]-phenyl}-4a,5,8,8a-tetrahydro-2H-phthalazin-1-one dihydrochloride] | 83 to 85 °C
19 | CCOc1ccc(C2=NN(c3ccc(C(=O)N4CCN(c5ccc(C(F)(F)F)cn5)CC4)cc3)C(=O)[C@@H]3CC=CC[C@H]23)cc1OCC [Compound 29, (4aS,8aR)-4-(3,4-Diethoxy-phenyl)-2-(4-{1-[4-(5-trifluoromethyl-pyridin-2-yl)-piperazin-1-yl]-methanoyl}-phenyl)-4a,5,8,8a-tetrahydro-2H-phthalazin-1-one] | 121 to 123 °C

Reference: patent US7022696B2, “Piperazino-derivatives and their use as PDE4 inhibitor” (Altana Pharma AG, priority 2001, dated 2006)
